Where two headings read alike, the source gives them in different places. Each block holds one compound with its values, some of them ahead of it.
Assays:
LXRα = target: T1, LXRα (Homo sapiens, UniProt Q13133); assay: LXRα cotransfection assay with TK-LXREx3-LUC reporter in CV-1 cells; type: cell-based; design: expressed in transfected cells; host or cells: CV-1 monkey kidney cells; conditions: for LXRα activity: 10 μM, CV-1 cotransfection assay
T1 sequence (Q13133 1-447): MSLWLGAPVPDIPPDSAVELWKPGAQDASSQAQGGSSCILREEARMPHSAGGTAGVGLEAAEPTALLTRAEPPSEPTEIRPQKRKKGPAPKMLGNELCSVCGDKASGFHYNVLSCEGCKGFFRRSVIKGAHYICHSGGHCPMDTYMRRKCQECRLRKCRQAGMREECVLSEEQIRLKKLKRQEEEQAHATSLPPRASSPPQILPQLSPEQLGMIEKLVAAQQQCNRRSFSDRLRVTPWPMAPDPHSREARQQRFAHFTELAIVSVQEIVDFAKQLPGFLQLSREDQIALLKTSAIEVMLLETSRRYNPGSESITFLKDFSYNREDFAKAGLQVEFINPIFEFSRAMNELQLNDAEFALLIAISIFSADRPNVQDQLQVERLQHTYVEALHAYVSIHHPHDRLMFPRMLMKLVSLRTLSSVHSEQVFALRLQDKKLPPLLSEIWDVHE
T1 sequence (P19793 1-462 partner): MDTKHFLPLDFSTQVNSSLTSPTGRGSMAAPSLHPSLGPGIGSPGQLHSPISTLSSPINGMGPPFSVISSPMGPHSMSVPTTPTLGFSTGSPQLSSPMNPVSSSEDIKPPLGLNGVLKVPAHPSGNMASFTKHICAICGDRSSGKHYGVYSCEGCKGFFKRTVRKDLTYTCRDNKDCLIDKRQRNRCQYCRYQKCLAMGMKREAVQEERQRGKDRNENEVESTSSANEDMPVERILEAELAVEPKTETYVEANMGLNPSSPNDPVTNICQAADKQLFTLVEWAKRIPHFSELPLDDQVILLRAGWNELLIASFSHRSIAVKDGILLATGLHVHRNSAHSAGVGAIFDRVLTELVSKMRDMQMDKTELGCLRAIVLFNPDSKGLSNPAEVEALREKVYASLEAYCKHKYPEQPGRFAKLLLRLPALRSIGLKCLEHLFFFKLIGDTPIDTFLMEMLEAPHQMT
Method: FIG. 1 Human LXRα is activated by gonad sterols. (A) Transactivation of LXRα ligand binding domain (LBD) with testis extract. CV-1 cells were cotransfected with a GAL4 responsive luciferase reporter plasmid and an expression plasmid encoding no receptor or a chimeric receptor composed of the GAL4 DNA binding domain fused to the LXRα ligand binding domain (LBD) (GAL4-LXRα)^3. After transfection, cells were treated with ethanol (ETOH) or 1% of the concentrated testis extract. (B) Transactivation of LXRα with follicular fluid meiosis activating substance (FF-MAS). CV-1 cells were cotransfected with an LXRα responsive reporter plasmid and the receptor expression plasmids for LXRα alone or with RXRα. After transfection, cells were treated with ETOH or […] FF-MAS.
FIG. 2 LXRα is activated by a specific subset of oxysterols. (A) Specificity of LXRα activators. Shown is a representative group from 70 compounds evaluated for LXRα activity (10 μM) in cotransfection assays as described in FIG. 1B. […] (B) The the structure-activity relationship of LXRα activators. Data compiled from FIG. 2A and other experiments (not shown) reveal that the position of the hydroxyl on the cholesterol backbone is a determinant of LXRα activity. […] Dose response curves for LXRα activators were generated in CV-1 cell cotransfection assays as described in FIG. 1B.
Organic extraction of breeding bull testis was performed as described^6. Briefly, 12 grams of lyophilized testis was extracted with N-heptane and lipids were concentrated by roto-evaporation. Aliquots representing 1% of this material were assayed. FF-MAS was synthesized as described^18. Transient transfections in CV-1 monkey kidney cells were performed in triplicate in 48-well plates as described^3 with media containing 5% cabosil-treated calf bovine serum.
Transfections were performed in FIG. 1A using 80 ng of TK-MH100x4-LUC reporter and 30 ng of CMX-GAL4-hLXRα expression plasmids per well; and in FIG. 1B using 50 ng of TK-LXREx3-LUC reporter and 25 ng of CMX-hLXRa alone or with 25 ng CMX-hRXRa expression plasmids per well. Candidate ligands were dissolved in ethanol and added 8 hours post-transfection. As an internal standard, 50 ng of CMX-β gal was included in all transfections. All plasmid constructs and determinations of luciferase and β-galactosidase activities have been described^3. To construct CMX-LXRα, the hLXRα cDNA insert was excised from the plasmid pXR2DRV (Willy, et al., 1995, Genes Dev. 9: 1033-1045) with Kpnl and BamHI and was ligated into the expression vector CMX. CMX-βgal was constructed by ligating the β-galactosidase gene into the expression vector CMX. Chimeric Gal4-receptor expression plasmid (CMX-GAL4-LXRα) was constructed by first ligating the GAL4 portion of pSC424 (Sadowski, I. and M. Ptashne, 1989, Nucleic Acids Res. 19: 7539-7530) into the HindIII/SacI sites of pCMX (Umesono, et al., 1991, Cell 65: 1255-1266) to create pCMX-GAL4. This vector contains the CMV promoter fused to the coding sequence for GAL4 (1-147), followed by inframe polylinker cloning sites and translational stop codons. The cDNAs encoding the ligand-binding domain (LBD) of hLXRα (amino acids 166-447) was then ligated into the polylinker to create CMX-GAL4-LXRα.
Reporter plasmids for these studies were constructed by ligating the appropriate oligonucleotides into the HindIII site of the TK-LUC vector to create TK-LXREx3-LUC, TK-MH100x4-LUC (Kang, T., et al., 1993, J. Biol Chem. 268: 9629-9635). The sense strand of the LXRE oligonucleotide used to construct the reporter plasmid TK-LXREx3-LUC was 5′agctt[…]3′ (SEQ. ID. NO. 1). All constructs were verified by sequencing. Data are presented as relative light units (RLUs) and represent the mean of triplicate assays±standard error. […]

LXRα protein = target: T2, LXRα protein (Homo sapiens, UniProt Q13133); assay: Limited protease protection assay (chymotrypsin) of [35S]-labelled Flag-LXRα; type: binding; conditions: increasing concentrations of chymotrypsin, SDS-PAGE and autoradiography
T2 construct: made in house; host or cells: in vitro synthesis (cell-free translation)
T2 sequence (Q13133 1-447): T1 sequence (Q13133 1-447)
Method: FIG. 4, Protease protection of LXRα with 22(R)-hydroxycholesterol. [^35S]-labelled LXRα protein was incubated with (A) ethanol (ETOH) control or (B) 22(R)-hydroxycholesterol, subjected to protease digestion with increasing amounts of chymotrypsin, and analyzed by SDS-PAGE and autoradiography.
In vitro synthesized [^35S]-labelled Flag-LXRα protein was subjected to protease digestion with α-chymotrysin. For these studies, LXRα with a Flag epitope fused to the amino terminus was used.
The unavailability of radiolabelled LXRα activators prevents direct ligand binding analysis. To address the possibility that 22(R)-hydroxycholesterol interacts with LXRα, a limited protease protection assay was performed (FIG. 4). In this experiment, several proteolytic fragments were generated when LXRα protein was incubated with increasing concentrations of the protease, chymotrypsin. […] The presence of a specific ligand-protected ˜30 kDa fragment has also been observed during similar analyses with other nuclear receptors. Thus, these protease protection studies support the finding that 22(R)-hydroxycholesterol interacts with LXRα.

RXR/LXR heterodimer = RXR/LXR heterodimer activation, dose response in CV-1 cells with TK-LXREx3-LUC; type: cell-based, human; conditions: LXRα expression plasmid, dose-dependent
Method: TK-DR-4-LUC; human vitamin D receptor (VDR)^24, TK-DR^3-LUC; human peroxisome proliferator-activated receptor-α (PPARα)^25, TK-PPREx3-LUC; human farnesol activated receptor (FXR)^11, ΔMTV-EcREx5-LUC; human estrogen receptor (ER)^26, ΔMTV-ERE-LUC; human glucocorticoid receptor (GR)^27, MTV-LUC; Drosophila ecdysone receptor (usp/EcR)^15, ΔMTV-EcREx5-LUC. Cells were treated with ETOH or 6 μM 22(R)-hydroxycholesterol. […] FIG. 3(A)-3(D) Activation of LXRα by 22(R)-hydroxycholesterol in Drosophila (SL-2) cells. […] CV-1 cells were cotransfected with TK-LXREx3-LUC reporter plasmid and expression plasmids containing the indicated receptor combinations, and then treated with the indicated ligands. […] CV-1 cells cotransfected with the LXRα expression plasmid and TK-LXREx3-LUC reporter were treated with 9-cis RA, 22(R)-hydroxycholesterol, or both, at the indicated concentrations.
In FIG. 3B. Drosophila SL-2 cells were transfected and assayed as previously described^5 in 6-well plates with […] A5C-hLXRα or A5C-hLXRα, 0.5 mg ADH-LXREx2-LUC, 0.2 mg A5C-βGAL and […] PGEM4 carrier DNA per well.
A subset of receptors that function as RXR heterodimers have the unique ability to be activated by their own ligand, the RXR ligand (i.e., 9-cis retinoic acid), or both ligands together^11,17. […]

[1] = CV-1 cell cotransfection, dose response curves, read-out: EC50 for LXRα activators

- LXRα activity (LXRα): no LXRα activity
SMILES: CC(C)=CCCC(C)=CCCC(C)=CCO [farnesol, reference compound]

SMILES: CC(C)CCC[C@@H](C)[C@H]1CC[C@H]2[C@@H]3[C@@H](O)C=C4C[C@@H](O)CC[C@]4(C)[C@H]3CC[C@]12C [7β-hydroxycholesterol]
- EC50 (LXRα; [1]): 3.5 µM

- ligand-protected 30 kDa chymotrypsin fragment of LXRα (LXRα protein): not
SMILES: CC(C)CCC[C@@H](C)[C@H]1CC[C@H]2[C@@H]3CC=C4C[C@@H](O)CC[C@]4(C)[C@H]3CC[C@]12C [cholesterol]

SMILES: CC(C)C(O)CC[C@@H](C)[C@H]1CC[C@H]2[C@@H]3CC=C4C[C@@H](O)CC[C@]4(C)[C@H]3CC[C@]12C (some centres unmarked) [24-hydroxycholesterol]
- EC50 (LXRα): 1.6 µM

- ligand-protected 30 kDa chymotrypsin fragment of LXRα (LXRα protein): not
SMILES: CC1=C(/C=C/C(C)=C\C=C\C(C)=C\C(=O)O)C(C)(C)CCC1 [9-cis retinoic acid, reference compound]
- maximal induction (RXR/LXR heterodimer): 7 fold

- EC50 (LXRα; [1]): 3.5 µM
- induction of transcription by LXRα (LXRα; CV-1 cells, wild-type LXRα, TK-LXREx3-LUC, 50 mM FF-MAS vs ETOH): 5-6 fold
SMILES: CC(C)=CCC[C@@H](C)[C@H]1CC=C2C3=C(CC[C@@]21C)[C@@]1(C)CC[C@H](O)C(C)(C)[C@@H]1CC3 [FF-MAS]

SMILES: CC(C)CC[C@H](O)[C@@H](C)[C@H]1CC[C@H]2[C@@H]3CC=C4C[C@@H](O)CC[C@]4(C)[C@H]3CC[C@]12C [22(S)-hydroxycholesterol]
- LXRα activity (LXRα): completely inactive

SMILES: CC(C)CCC[C@](C)(O)[C@H]1CC[C@H]2[C@@H]3CC=C4C[C@@H](O)CC[C@]4(C)[C@H]3CC[C@@]21C [20(S)-hydroxycholesterol]
- EC50 (LXRα; [1]): 1.6 µM

- EC50 (LXRα; [1]): 3.5 µM
SMILES: C[C@H](CCCC(C)(C)O)[C@H]1CC[C@H]2[C@@H]3CC=C4C[C@@H](O)CC[C@]4(C)[C@H]3CC[C@]12C [25-hydroxycholesterol]

Source: patent US6893830B1, “Method of screening oxysterol activation of LXRα” (The Board of Regents of the University of Texas System, priority 1996, dated 2005)
